Results reported in patent publication US12661410B2, “Compounds for targeted degradation of RET” (C4 Therapeutics, Inc., priority 2020, dated 2026).
Where a chain is given by its changes, count along the chain named. Read-outs that look alike come from different tables or passages of the source.

How the values were obtained:
RET (658-1114) = molecular target: T1, RET (658-1114) (Homo sapiens, UniProt P07949); assay: HiBiT-Degradation, RET wild-type degradation assay (Nano-Glo HiBiT Lytic), 293T.144 cells; assay type: cell-based; details: for DC50 / Emax: 6.0 hours
T1 construct: 658-1114; expressed in transfected cells; host or cells: 293T.144 (293T cells, generated in-house)
T1 sequence (P07949 658-1114): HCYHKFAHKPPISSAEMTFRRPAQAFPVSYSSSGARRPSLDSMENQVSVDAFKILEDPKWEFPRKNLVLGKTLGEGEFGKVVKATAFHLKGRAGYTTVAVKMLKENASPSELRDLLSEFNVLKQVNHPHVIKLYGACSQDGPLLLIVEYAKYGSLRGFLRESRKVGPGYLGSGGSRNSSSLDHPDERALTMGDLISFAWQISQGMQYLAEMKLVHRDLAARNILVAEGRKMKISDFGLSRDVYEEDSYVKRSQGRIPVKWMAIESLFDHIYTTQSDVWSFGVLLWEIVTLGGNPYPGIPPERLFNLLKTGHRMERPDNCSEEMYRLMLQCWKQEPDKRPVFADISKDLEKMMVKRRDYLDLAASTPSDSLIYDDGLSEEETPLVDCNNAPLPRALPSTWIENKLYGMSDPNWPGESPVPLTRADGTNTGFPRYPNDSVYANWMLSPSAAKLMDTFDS
How it was run: (§1)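 HEK293T lines stably expressing HiBiT-tagged RET kinase domain (WT: 293T.144; G810R: 293T.165) were treated with degraders for 6 h in duplicate, 11-point half-log series from 10 μM top dose. Lysis with Nano-Glo HiBiT Lytic reagent, luminescence read; DC50 and Emax (% remaining protein) derived from dose-response curves.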

RET(KD: 658-1114 G810R) = molecular target: T2, RET(KD: 658-1114 G810R) (Homo sapiens, UniProt P07949, G810R); assay: HiBiT-Degradation, RET G810R degradation assay (Nano-Glo HiBiT Lytic), 293T.165 cells; assay type: cell-based; details: for Emax / DC50: 6.0 hours
T2 construct: 658-1114; expressed in transfected cells; host or cells: 293T.165 (293T cells, generated in-house)
T2 sequence (P07949 658-1114 G810R): T1 sequence (P07949 658-1114) with G153R
How it was run: as §1

[1] = HiBiT-Degradation, read-out: 293T.144 RET (658-1114) 6.0 hours (DC50)
[2] = HiBiT-Degradation, read-out: 293T.144 RET (658-1114) 6.0 hours (Emax)
[3] = % remaining protein, read-out: 293T.165 RET(KD: 658-1114 G810R) 6.0 hours (Emax)
[4] = half-maximal degradation concentration, read-out: 293T.165 RET(KD: 658-1114 G810R) 6.0 hours (DC50)
[5] = HiBiT-Degradation, read-out: 293T.165 RET(KD: 658-1114 G810R) 6.0 hours (DC50)
[6] = RET wild-type, read-out: HiBiT-Degradation 293T.144 RET (658-1114) 6.0 hours (DC50)
[7] = RET wild-type, read-out: HiBiT-Degradation 293T.144 RET (658-1114) 6.0 hours (Emax)
[8] = RET G810R, read-out: HiBiT-Degradation 293T.165 RET(KD: 658-1114 G810R) 6.0 hours (Emax)
[9] = % remaining protein, read-out: 293T.144 RET (658-1114) 6.0 hours (Emax)
[10] = half-maximal degradation concentration, read-out: 293T.144 RET (658-1114) 6.0 hours (DC50)

Row | 293T.144 RET (658-1114) 6.0 hours (IP) [nM] (RET (658-1114); HiBiT-Degradation) | DC50 (RET (658-1114); [1]) | Emax (RET (658-1114); [2]) | Emax (RET(KD: 658-1114 G810R); [3]) | DC50 (RET(KD: 658-1114 G810R); [4]) | 293T.165 RET(KD: 658-1114 G810R) 6.0 hours (Emax) (RET(KD: 658-1114 G810R); HiBiT-Degradation) | 293T.165 RET(KD: 658-1114 G810R) 6.0 hours (IP) [nM] (RET(KD: 658-1114 G810R); HiBiT-Degradation) | DC50 (RET(KD: 658-1114 G810R); [5]) | HiBiT-Degradation 293T.144 RET (658-1114) 6.0 hours (IP) [nM] (RET (658-1114); RET wild-type) | DC50 (RET (658-1114); [6]) | Emax (RET (658-1114); [7]) | HiBiT-Degradation 293T.165 RET(KD: 658-1114 G810R) 6.0 hours (IP) [nM] (RET(KD: 658-1114 G810R); RET G810R) | DC50 (RET(KD: 658-1114 G810R); RET G810R, read-out: HiBiT-Degradation 293T.165 RET(KD: 658-1114 G810R) 6.0 hours (DC50)) | Emax (RET(KD: 658-1114 G810R); [8]) | 293T.144 RET (658-1114) 6.0 hours (IP) [nM] (RET (658-1114)) | Emax (RET (658-1114); [9]) | DC50 (RET (658-1114); [10]) | 293T.165 RET(KD: 658-1114 G810R) 6.0 hours (IP) [nM] (RET(KD: 658-1114 G810R)) | Compound
1 | – | – | – | < 30% | < 50 nM | – | – | – | ++++ (< 50 nM = ++++) | < 50 nM | < 30% | ++++ (< 50 nM = ++++) | < 50 nM | < 30% | – | – | – | – | CCC1(C(=O)NC(C)C)CCN(c2ccc(-c3nc(-c4cnn(C5CCN(C(=O)CC6(O)CCN(c7ccc(N[C@@H]8CCC(=O)NC8=O)cc7F)CC6)CC5)c4)cn4ncc(C#N)c34)cn2)CC1 (single isomer, unassigned) [Compound 79]
2 | – | – | – | < 30% | < 50 nM | – | – | – | – | – | – | – | – | – | ++++ (<50 nM = ++++) | < 30% | < 50 nM | ++++ (<50 nM = ++++) | CCC1(C(=O)NC2CCC2)CCN(c2ccc(-c3nc(-c4cnn([C@H]5CC[C@H](N6CCC(c7ccc8c(c7)CCN8[C@@H]7CCC(=O)NC7=O)CC6)CC5)c4)cn4ncc(C#N)c34)cn2)CC1 (single isomer, unassigned) [Compound 129]
3 | – | – | – | < 50% | < 50 nM | – | – | – | – | – | – | – | – | – | ++++ (<50 nM = ++++) | < 30% | < 50 nM | ++++ (<50 nM = ++++) | N#Cc1cnn2cc(-c3cnn(C4CCN(C(=O)CC5(O)CCN(c6ccc(NC7CCC(=O)NC7=O)cc6F)CC5)CC4)c3)nc(-c3ccc(N4CCN(C(=O)C5CCC5)CC4)nc3)c12 (centres unmarked) [Compound 112, 4-[6-[4-(cyclobutanecarbonyl)piperazin-1-yl]-3-pyridyl]-6-[1-[1-[2-[1-[4-[(2,6-dioxo-3-piperidyl)amino]-2-fluoro-phenyl]-4-hydroxy-4-piperidyl]acetyl]-4-piperidyl]pyrazol-4-yl]pyrazolo[1,5-a]pyrazine-3-carbonitrile]

Further lines, the compound ahead of its results:

Row | Compound | 293T.144 RET (658-1114) 6.0 hours (IP) [nM] (RET (658-1114); HiBiT-Degradation) | DC50 (RET (658-1114); [1]) | Emax (RET (658-1114); [2]) | Emax (RET(KD: 658-1114 G810R); [3]) | DC50 (RET(KD: 658-1114 G810R); [4]) | 293T.165 RET(KD: 658-1114 G810R) 6.0 hours (Emax) (RET(KD: 658-1114 G810R); HiBiT-Degradation) | 293T.165 RET(KD: 658-1114 G810R) 6.0 hours (IP) [nM] (RET(KD: 658-1114 G810R); HiBiT-Degradation) | DC50 (RET(KD: 658-1114 G810R); [5]) | HiBiT-Degradation 293T.144 RET (658-1114) 6.0 hours (IP) [nM] (RET (658-1114); RET wild-type) | DC50 (RET (658-1114); [6]) | Emax (RET (658-1114); [7]) | HiBiT-Degradation 293T.165 RET(KD: 658-1114 G810R) 6.0 hours (IP) [nM] (RET(KD: 658-1114 G810R); RET G810R) | DC50 (RET(KD: 658-1114 G810R); RET G810R, read-out: HiBiT-Degradation 293T.165 RET(KD: 658-1114 G810R) 6.0 hours (DC50)) | Emax (RET(KD: 658-1114 G810R); [8]) | 293T.144 RET (658-1114) 6.0 hours (IP) [nM] (RET (658-1114)) | Emax (RET (658-1114); [9]) | DC50 (RET (658-1114); [10]) | 293T.165 RET(KD: 658-1114 G810R) 6.0 hours (IP) [nM] (RET(KD: 658-1114 G810R))
4 | CC(C)NC(=O)C1(C)CCN(c2ccc(-c3cc(-c4cnn(C5CCN(C(=O)CN6CCC(c7ccc(NC8CCC(=O)NC8=O)cc7F)CC6)CC5)c4)cn4ncc(C#N)c34)cn2)CC1 (centres unmarked) [Compound 2, 1-(5-(3-Cyano-6-(1-(1-(2-(4-(4-((2,6-dioxopiperidin-3-yl)amino)-2-fluorophenyl)piperidin-1-yl)acetyl)piperidin-4-yl)-1H-pyrazol-4-yl)pyrazolo[1,5-a]pyridin-4-yl)pyridin-2-yl)-N-isopropyl-4-methylpiperidine-4-carboxamide] | ++++ (< 50 nM = ++++) | < 50 nM | < 30% | < 50% | < 50 nM | +++ (<50% = +++) | ++++ (< 50 nM = ++++) | < 50 nM | – | – | – | – | – | – | – | – | – | –
5 | CCC1(C(=O)Nc2ccccc2)CCN(c2ccc(-c3nc(-c4cnn(C5CCN(C(=O)CC6(O)CCN(c7ccc(NC8CCC(=O)NC8=O)cc7F)CC6)CC5)c4)cn4ncc(C#N)c34)cn2)CC1 (centres unmarked) [Compound 99, 1-[5-[3-cyano-6-[1-[1-[2-[1-[4-[(2,6-dioxo-3-piperidyl)amino]-2-fluoro-phenyl]-4-hydroxy-4-piperidyl]acetyl]-4-piperidyl]pyrazol-4-yl]pyrazolo[1,5-a]pyrazin-4-yl]-2-pyridyl]-4-ethyl-N-phenyl-piperidine-4-carboxamide] | – | – | – | < 30% | < 50 nM | – | – | – | – | – | – | – | – | – | ++++ (<50 nM = ++++) | < 30% | < 50 nM | ++++ (<50 nM = ++++)
6 | N#Cc1cnn2cc(-c3ccc(N4CCN(C(=O)CN5CCC(c6ccc(NC7CCC(=O)NC7=O)cc6)CC5)CC4)cc3)cc(-c3ccc(N4CCC(Nc5ccccc5)CC4)nc3)c12 (centres unmarked) [Compound 20, 6-(4-(4-(2-(4-(4-((2,6-Dioxopiperidin-3-yl)amino)phenyl)piperidin-1-yl)acetyl)piperazin-1-yl)phenyl)-4-(6-(4-(phenylamino)piperidin-1-yl)pyridin-3-yl)pyrazolo[1,5-a]pyridine-3-carbonitrile] | ++++ (< 50 nM = ++++) | < 50 nM | < 30% | < 30% | < 100 nM | ++++ (< 30% = ++++) | +++ (<100 nM = +++) | < 100 nM | – | – | – | – | – | – | – | – | – | –
7 | CCC1(C(=O)NC(C)C)CCN(c2ccc(-c3cc(-c4cnn([C@H]5CC[C@H](N6CCC(c7ccc(NC8CCC(=O)NC8=O)cc7F)CC6)CC5)c4)cn4ncc(C#N)c34)cn2)CC1 (single isomer, unassigned) [Compound 87, 1-(5-(3-cyano-6-(1-((1r, 4r)-4-(4-(4-((2,6-dioxopiperidin-3-yl)amino)-2-fluorophenyl)piperidin-1-yl)cyclohexyl)-1H-pyrazol-4-yl)pyrazolo[1,5-a]pyridin-4-yl)pyridin-2-yl)-4-ethyl-N-isopropylpiperidine-4-carboxamide] | – | – | – | < 30% | – | – | – | – | ++++ (< 50 nM = ++++) | < 50 nM | < 30% | ++++ (< 50 nM = ++++) | – | < 30% | – | – | – | –
8 | N#Cc1cnn2cc(-c3cnn([C@H]4CC[C@H](N5CCC(c6ccc(NC7CCC(=O)NC7=O)cc6F)CC5)CC4)c3)nc(-c3ccc(N4CC5COCC(C4)N5Cc4ccccn4)nc3)c12 (single isomer, unassigned) [Compound 154, 6-[1-[4-[4-[4-[(2,6-dioxo-3-piperidyl)amino]-2-fluoro-phenyl]-1-piperidyl]cyclohexyl]pyrazol-4-yl]-4-[6-[9-(2-pyridylmethyl)-3-oxa-7,9-diazabicyclo[3.3.1]nonan-7-yl]-3-pyridyl]pyrazolo[1,5-a]pyrazine-3-carbonitrile] | – | – | – | < 30% | < 50 nM | – | – | – | – | – | – | – | – | – | ++++ (<50 nM = ++++) | < 30% | < 50 nM | ++++ (<50 nM = ++++)
9 | CCC1(C(=O)NC2CCC2)CCN(c2ccc(-c3nc(-c4cnn(C5CCN([C@H]6CCN(c7ccc(N[C@H]8CCC(=O)NC8=O)cc7F)CC6(F)F)CC5)c4)cn4ncc(C#N)c34)cn2)CC1 (single isomer, unassigned) [Compound 191] | – | – | – | < 30% | < 100 nM | – | – | – | – | – | – | – | – | – | ++++ (<50 nM = ++++) | < 30% | < 50 nM | +++ (<100 nM = +++)
10 | N#Cc1cnn2cc(-c3cnn([C@H]4CC[C@H](CCN5CCC(c6ccc(NC7CCC(=O)NC7=O)cc6F)CC5)CC4)c3)nc(-c3ccc(N4CCN(C(=O)Cc5ccc(F)cn5)CC4)nc3)c12 (some centres unmarked) [Compound 60, 6-[1-[(1r,4r)-4-[2-[4-[4-[(2,6-dioxo-3-piperidyl)amino]-2-fluoro-phenyl]-1-piperidyl]ethyl]cyclohexyl]pyrazol-4-yl]-4-[6-[4-[2-(5-fluoro-2-pyridyl)acetyl]piperazin-1-yl]-3-pyridyl]pyrazolo[1,5-a]pyrazine-3-carbonitrile] | ++++ (< 50 nM = ++++) | < 50 nM | < 30% | < 30% | < 50 nM | ++++ (< 30% = ++++) | ++++ (< 50 nM = ++++) | < 50 nM | – | – | – | – | – | – | – | – | – | –
